Experimental data from patent US9339486B2, “Heterocyclic modulators of cannabinoid receptors” (THE CLEVELAND CLINIC FOUNDATION, priority 2008, dated 2016).

What was measured:
CB1 = CB1 (Homo sapiens (Human), UniProt P21554); experiment: CB1 Binding Assay ([3H]CP 55940, cell membrane homogenates)
Procedure: (§1) After being incubated, the samples were filtered rapidly under vacuum through glass fiber filters (GF/B; Packard) presoaked with 0.3% PEI and rinsed several times with ice-cold buffer containing 50 mM Tris HCl (pH 7.4) and 0.5% BSA using a 96-sample cell harvester (Unifilter; Packard). The filters were dried then counted for radioactivity in a scintillation counter (Topcount; Packard) using a scintillation cocktail (Microscint 0; Packard). The results were expressed as a percentage of the inhibition of the control radioligand-specific binding. The reference standard compounds were tested in each experiment at several concentrations to obtain a competition curve from which its IC50 was calculated.

CB2 = CB2 (Homo sapiens (Human), UniProt P34972); experiment: CB2 Binding Assay ([3H]WIN 55212-2, cell membrane homogenates)
Procedure: as §1, with “Cell membrane homogenates (15 μg protein) were incubated for 120 min at 37° C. with 0.8 nM [3H]WIN 55212-2 (the reference standard [Munro, 1993 #1321]) in the absence or presence of the test compound in a buffer containing 50 mM HEPES/Tris HCL (pH 7.4), 5 mM MgCl2, 2.5 mM EGTA, and 0.1% BSA. Nonspecific binding was determined in the presence of 10 μM WIN 55212-2. After” for “After”

rCB2 receptors = rCB2 receptors (Rattus norvegicus (Rat), UniProt Q9QZN9); experiment: cAMP activation assay rCB2; format: cell-based; conditions: read-out: Agonist EC50 (mean ± s.e. mean) cAMP activation assays rCB2
Procedure: The compound of Example 3 was tested for agonist activity at the rat CB1 (rCB1) and rCB2 receptors, at eight concentrations, in duplicate: 10, 3, 1, 0.3, 0.1, 0.03, 0.01 and 0.001 μM. Recombinant cells grown to mid-log phase in culture media without antibiotics were detached with PBS containing 5 mM EDTA, centrifuged and resuspended in assay buffer at a concentration of 16.6×10^5 cells/ml. The test was performed in 96 well plates. For testing, 12 μl of cells ([…]) were mixed with 12 μl of agonist at increasing concentrations. […] The plates were then incubated for 30 min at room temperature. After addition of the lysis buffer, cAMP concentrations were estimated, according to the manufacturer specification, with the HTRF kit from Cis-Bio International (Catalogue number 62AM2PEB).

nerve-ligation model = experiment: Assessment of mechanical allodynia in rats, L5/6 spinal-nerve ligation, von Frey (IP or IT); format: in vivo, rat
Procedure: All experiments were performed on male Sprague-Dawley rats (200-250 g). Rats were housed individually in plastic cages with soft bedding at room temperature and maintained on a 12-hour light-dark cycle with free access to food and water.
Neuropathic pain was induced following the methods of Kim and Chung. Kim S H, Chung J M. An experimental model for peripheral neuropathy produced by segmental spinal nerve ligation in the rat. Pain 1992; 50:355-63. Rats were anesthetized and placed prone under a microsurgical apparatus. A midline incision was made on the back, and the right paraspinal muscles were separated from the spinous processes at the L4-S2 levels. The L6 transverse process was carefully removed, and the L4/5 spinal nerves were identified. The L5 nerve was tightly ligated with a 6-0 silk suture. The right L6 spinal nerve was then located just caudal and medial to the sacroiliac junction and tightly ligated with a silk suture.
Two weeks later after spinal nerve ligation, Intrathecal catheters (PE-10 tubing) was inserted into the rats while they were anesthetized with isoflurane, as described by Yaksh and Rudy. Yaksh T L, Rudy T A. Chronic catheterization of the spinal subarachnoid space. Physiology & Behavior 1976; 17:1031-6. A midline incision was made on the back of the neck. The muscle was freed at the attachment to the skull exposing the cisternal membrane. The membrane was opened with a stab blade and an 8.5 cm polyethylene (PE-10) catheter was then inserted through the cisternal opening, and passed carefully and caudally into the intrathecal space at the L1-L3 spinal segments. The end of the catheter was tunneled through the subcutaneous space over the frontal bones, flushed with 10 μl saline, and then plugged with a short length of wire. Animal testing was performed 5-7 days after intrathecal catheter placement.
To assess mechanical allodynia, the mechanical paw withdrawal threshold was measured with a series of von Frey hairs (range 0.4-15 g). Rats were placed in elevated Perspex enclosures (28 cm×15 cm×18 cm) with wire mesh bases and given 15-20 min to acclimatize to the testing environment. Rats will be allowed to acclimatize for 30 min in a clear plastic cage with a wire mesh bottom. The calibrated von Frey filament fibers were applied to the hindpaw briefly for 6 seconds to determine the paw withdrawal threshold before and after drug injection (intraperitoneally or intrathecally). A series of von Frey filaments with exponentially incremental stiffness (0.4, 0.7, 1.2, 2.0, 3.6, 5.5, 8.5 and 15 g) were used to measure the 50% threshold for hindpaw withdrawal in awake, unrestrained rats. Chaplan S R, Bach F W, Pogrel J W, Chung J M, Yaksh T L. Quantitative assessment of tactile allodynia in the rat paw. Journal of Neuroscience Methods 1994; 53:55-63. Brisk paw withdrawal from the pressure of a filament gently bent against the plantar paw was defined as a positive response, and absence of withdrawal within 6 s as a negative response. Filaments were touched to the hindpaw in sequential ascending or descending order until the threshold of response is crossed (allowing about 10 s between each increment of the von Frey filaments). Each time the threshold is crossed, the direction of stimulus presentation was reversed and the procedure will be resumed. Four responses were collected after the first threshold detection, and the 50% withdrawal thresholds were interpolated. In cases where response thresholds fell outside the range of detection, 15.00 and 0.25 g were, respectively, assigned for continuous negative or positive responses to the limit of stimuli.
The compound of Example 3 was prepared in dimethyl sulfoxide (DMSO).

[1] = CB1, test concentration 1.0E−05 (MD)
[2] = CB2, test concentration 1.0E−05 (MD)

CB1, sequence (P21554 whole entry): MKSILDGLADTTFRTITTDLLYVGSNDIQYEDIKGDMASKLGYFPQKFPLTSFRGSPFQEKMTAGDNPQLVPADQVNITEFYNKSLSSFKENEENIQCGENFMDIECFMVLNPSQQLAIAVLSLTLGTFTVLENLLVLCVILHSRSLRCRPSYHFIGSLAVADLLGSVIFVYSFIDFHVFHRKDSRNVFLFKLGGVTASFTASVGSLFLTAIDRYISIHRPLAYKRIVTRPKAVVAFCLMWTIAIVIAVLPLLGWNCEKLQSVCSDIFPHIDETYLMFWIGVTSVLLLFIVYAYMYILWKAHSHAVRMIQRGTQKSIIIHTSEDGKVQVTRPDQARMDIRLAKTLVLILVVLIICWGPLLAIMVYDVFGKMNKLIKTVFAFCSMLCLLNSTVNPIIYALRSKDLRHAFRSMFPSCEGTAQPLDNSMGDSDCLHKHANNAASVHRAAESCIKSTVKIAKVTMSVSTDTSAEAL
CB2, sequence (P34972 whole entry): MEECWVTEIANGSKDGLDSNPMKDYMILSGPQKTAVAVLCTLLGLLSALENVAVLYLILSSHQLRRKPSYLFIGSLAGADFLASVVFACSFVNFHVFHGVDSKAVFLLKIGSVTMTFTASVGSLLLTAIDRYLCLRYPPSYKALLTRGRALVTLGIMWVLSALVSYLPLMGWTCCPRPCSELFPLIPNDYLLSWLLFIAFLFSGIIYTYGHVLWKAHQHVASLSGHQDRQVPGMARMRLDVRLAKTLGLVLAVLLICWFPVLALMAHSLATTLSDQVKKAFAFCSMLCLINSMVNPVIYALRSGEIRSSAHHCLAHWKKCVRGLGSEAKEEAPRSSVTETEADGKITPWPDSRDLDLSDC

## CC1(Cc2ccccc2)COc2cc(C(=O)N3CCCCC3)ccc21 (stereo not drawn) [Example 3, 3-benzyl-3-methyl-2,3-dihydrobenzofuran-6-carboxylic acid-piperidine amide]
CB1; [1]
  % Inhibition of Control Specific Binding: 71%
  % of Control Specific Binding Mean: 29%
CB1; CB1, test concentration 1.0E−05 (MD), first replicate
  % of Control Specific Binding 1st: 22%
CB1; CB1, test concentration 1.0E−05 (MD), second replicate
  % of Control Specific Binding 2nd: 36%
CB1; as repeated in Table 3
  % Inhibition of Control Specific Binding CB1: 71%
CB2; [2]
  % Inhibition of Control Specific Binding: 91%
  % of Control Specific Binding Mean: 9.4%
CB2; CB2, test concentration 1.0E−05 (MD), first replicate
  % of Control Specific Binding 1st: 13%
CB2; CB2, test concentration 1.0E−05 (MD), second replicate
  % of Control Specific Binding 2nd: 5.8%
CB2; as repeated in Table 4
  % Inhibition of Control Specific Binding CB2: 91%
rCB2 receptors
  EC50: 0.0217 ± 0.0079 µM
nerve-ligation model; IP 30 mg/kg
  mechanical paw withdrawal threshold maintained: 15 g
  time of peak effect following IP administration: ≤ 5 min
nerve-ligation model; IP 30 mg/kg in 0.5 ml
  effect on mechanical paw withdrawal threshold: increase in mechanical paw withdrawal threshold
nerve-ligation model; IP 30 mg/kg, 2-h observation period
  duration of high threshold: > 2 h
nerve-ligation model; IT administration
  behavioral abnormalities or side effects: No behavioral abnormalities or side effects were noted
  effect on mechanical paw withdrawal threshold: increase in mechanical paw withdrawal threshold
nerve-ligation model; IT administration, 90-min observation period
  duration of increase in mechanical paw withdrawal threshold: ≥ 90 min
